Reference: PMC4023695 (ACS medicinal chemistry letters, 2014)
Marks after values point to notes of the source that are not given here.

How the values were obtained:
[1] = test system: MOR; settings: read-out: GPI IC50; DALDA literature characterisation, no reference given; cited from earlier work
[2] = test system: Caco-2 cell monolayers; test: Caco-2 cell monolayer translocation; format: in vitro ADME
[3] = test system: C57Bl6 mice; test: Mouse tail-flick assay; format: in vivo; settings: intravenous, nonlinear regression of log dose–response curve
[4] = Metabolic plasma stability assay; format: in vitro ADME; settings: up to 20 h
[5] = biological target: MOR (Rattus norvegicus, UniProt P33535); format: binding
Sequence of MOR (Rattus norvegicus, UniProt P33535) (P33535 whole entry): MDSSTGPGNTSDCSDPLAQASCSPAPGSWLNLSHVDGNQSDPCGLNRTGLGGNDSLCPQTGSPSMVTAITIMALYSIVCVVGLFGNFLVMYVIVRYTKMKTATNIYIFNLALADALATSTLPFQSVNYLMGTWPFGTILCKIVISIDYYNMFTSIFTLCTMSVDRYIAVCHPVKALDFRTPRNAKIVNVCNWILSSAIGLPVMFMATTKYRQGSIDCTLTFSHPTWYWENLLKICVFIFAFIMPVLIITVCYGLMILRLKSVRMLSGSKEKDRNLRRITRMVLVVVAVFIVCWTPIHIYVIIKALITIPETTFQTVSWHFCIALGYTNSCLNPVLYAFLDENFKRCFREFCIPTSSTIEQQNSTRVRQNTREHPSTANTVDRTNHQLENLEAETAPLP

[6] = cited from earlier work
[7] = cis-concentration 13 nM, absence of unlabelled compound, means ± SE, n = 3

Compound: Tyr-D-Arg-Phe-Lys-NH2 [DALDA]
- IC50 [1]: 254 nM

Compound: Cc1cc(O)cc(C)c1C[C@H](N)C(=O)N[C@H](CCCNC(=N)N)C(=O)N[C@@H](Cc1ccccc1)C(=O)N[C@@H](Cc1cn([C@@H]2O[C@H](CO)[C@H](O)[C@H](O)[C@H]2O)nn1)C(N)=O [compound 4]
- A–B and B–A permeabilities compared to mannitol ([2]; 21 day old Caco-2 monolayers, 13 nM): slightly higher than the permeability of the passive flux marker mannitol
- Flux A–B (lumen–blood) [2, 7]: 2.59 ± 0.15 nmol·cm^−2·min^−1 × 10^−7
- Flux B–A (blood–lumen) [2, 7]: 2.96 ± 0.13 nmol·cm^−2·min^−1 × 10^−7
- ED50 tail-flick test [3]: 0.27* mg/kg
- degradation in human plasma [4]: no degradation products could be observed

Compound: N=C(N)NCCC[C@@H](NC(=O)[C@@H](N)Cc1ccc(OCc2cn([C@@H]3O[C@H](CO)[C@H](O)[C@H](O)[C@H]3O)nn2)cc1)C(=O)N[C@@H](Cc1ccccc1)C(=O)N[C@@H](CCCCN)C(N)=O [compound 3]
- loss in binding (MOR) relative to DALDA ([5]; compound 3 vs DALDA): 22 fold
- Ki ratio μ/δ ([5]; μ/δ receptor binding selectivity ratio): >130

Compound: Cc1cc(O)cc(C)c1C[C@H](N)C(=O)N[C@H](CCCNC(=N)N)C(=O)N[C@@H](Cc1ccccc1)C(=O)N[C@@H](Cc1cn([C@@H]2O[C@H](CO)[C@@H](O)[C@H](O)[C@H]2O)nn1)C(N)=O [compound 5]
- degradation in human plasma [4]: no degradation products could be observed

Compound: OC[C@@H](O)[C@@H](O)[C@H](O)[C@H](O)CO [mannitol]
- oral bioavailability [6]: ~ 20%
